Measurements taken from US8575091B1, “Amylin analogues and pharmaceutical compositions thereof” (Novo Nordisk A/S, priority 2012, dated 2013).
Numbered stars: 1 amine (or outer) side, 2 acyl side, 3 side chain; on linkers, the order of the positions; unused ones are H or OH. Bridge positions count the residues as written; N and C are the ends. Side chains are listed from the residue outwards. Peptide text beside a SMILES is read from it. * marks the point of attachment. C20 diacid = O=C(O)CCCCCCCCCCCCCCCCCCC(=O)*; γGlu = O=C(O)[C@H](CCC(=O)[*:2])N[*:1]

How the values were obtained:
[1] = biological target: T1, human amylin receptor (amylin 3(a) receptor: human calcitonin receptor + RAMP-3) (Homo sapiens, UniProt O60896+P30988); experiment: Assay (II)a functional assay, human amylin receptor (CRE luciferase, BHK cells); assay type: cell-based; conditions: for EC50: functional assay, human amylin receptor, read-out: hAmylin-R funct. EC50
T1 construct: expressed in transfected cells
T1 sequence (P30988 25-474): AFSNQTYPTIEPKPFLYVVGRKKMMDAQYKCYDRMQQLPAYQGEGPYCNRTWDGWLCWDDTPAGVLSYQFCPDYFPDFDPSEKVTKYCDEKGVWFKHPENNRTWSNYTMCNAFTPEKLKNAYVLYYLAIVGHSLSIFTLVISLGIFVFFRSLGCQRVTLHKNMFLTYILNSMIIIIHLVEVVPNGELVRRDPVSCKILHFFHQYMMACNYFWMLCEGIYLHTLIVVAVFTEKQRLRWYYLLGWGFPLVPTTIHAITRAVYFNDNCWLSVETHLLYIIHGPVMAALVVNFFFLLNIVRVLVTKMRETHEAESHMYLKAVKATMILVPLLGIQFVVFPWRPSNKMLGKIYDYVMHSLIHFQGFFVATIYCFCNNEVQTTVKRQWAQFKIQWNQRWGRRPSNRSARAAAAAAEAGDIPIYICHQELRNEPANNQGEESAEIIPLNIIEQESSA
T1 sequence (O60896 24-148 partner): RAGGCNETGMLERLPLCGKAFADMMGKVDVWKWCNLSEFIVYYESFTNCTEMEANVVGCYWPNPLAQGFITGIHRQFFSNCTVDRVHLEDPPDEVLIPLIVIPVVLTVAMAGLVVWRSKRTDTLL

[2] = biological target: T2, human calcitonin receptor (Homo sapiens, UniProt P30988); experiment: Assay (II)a functional assay, human calcitonin receptor (CRE luciferase, BHK cells);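 note: luminescence from a CRE-driven luciferase reporter, read by single photon counting after cells were exposed to test samples for 3 h at 37 °C under 5% CO2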; assay type: cell-based; conditions: read-out: hCTR funct. EC50
T2 construct: expressed in transfected cells
T2 sequence (P30988 25-474): T1 sequence (P30988 25-474)

[3] = Assay (IV) determination of solubility; assay type: physicochemical; conditions: for Solubility pH 6.5 Concentration (μM): pH 6.5, 18 hours room temperature; for Solubility pH 7.0 Concentration (μM): pH 7.0, 18 hours room temperature; for Solubility pH 7.5 Concentration (μM): pH 7.5, 18 hours room temperature; for Solubility pH 8.0 Concentration (μM): pH 8.0, 18 hours room temperature
Procedure: Assay (IV)—Determination of Solubility
The polypeptide was dissolved in water at ˜500 nmol/ml and mixed 1:1 with a series of buffers (100 mM glycylglycine pH 3.0, 100 mM glycylglycine pH 4.0, 100 mM glycylglycine pH 5.0, 100 mM bistrispropane pH 6.0, 100 mM bistrispropane pH 6.5, 100 mM bistrispropane pH 7.0, 100 mM bistrispropane pH 7.5, 100 mM bistrispropane pH 8.0). After 18 hours at room temperature the samples were centrifuged and the polypeptide concentration determined by UPLC.

[4] = biological target: T3, human amylin receptor (Homo sapiens, UniProt O60896+P30988); experiment: Assay (V) binding to the human amylin receptor (SPA, 125I-rat amylin); conditions: human amylin receptor membranes, SPA; read-out: hAmylin-R bind IC50
T3 construct: expressed in transfected cells
T3 sequence (P30988 25-474): T1 sequence (P30988 25-474)
T3 sequence (O60896 24-148 partner): T1 sequence (O60896 24-148 partner)
Outline: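 SPA competition binding on membranes from Amylin 3(a)/CRE-luc cells, 35 ng/μL membranes with 0.05 mg/well beads. Buffer 50 mM Hepes pH 7.4, 1 mM CaCl2, 5 mM MgCl2, 0.1% OA, 0.02% Tween20. IC50 from one-site competition fit as affinity measure.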

[5] = biological target: T2, human calcitonin receptor; experiment: Assay (VII) binding to the human calcitonin receptor (SPA, 125I-Calcitonin); conditions: read-out: hCTR bind IC50;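 note: cell membranes coupled to SPA beads, competitive displacement read by scintillation counting, IC50 derived from a one-site competition fit as a measure of receptor affinity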
[6] = Table 6, human functional selectivity (hCTR EC50 / hAmylin-R EC50)
[7] = Table 6a, human functional selectivity (hCTR EC50 / hAmylin-R EC50), at least 5
[8] = Table 6j, hCTR funct. EC50 / hAmylin-R funct. EC50
[9] = Table 6k, hCTR funct. EC50 / hAmylin-R funct. EC50

EC50 [1]	EC50 [2]	Solubility pH 6.5 Concentration (μM) [3]	Solubility pH 7.0 Concentration (μM) [3]	Solubility pH 7.5 Concentration (μM) [3]	Solubility pH 8.0 Concentration (μM) [3]	IC50 [4]	IC50 [5]	Ratio hCT/hAmylin funct. [1, 6]	Ratio hCT/hAmylin funct. [1, 7]	Ratio hCT/hAmylin funct. [1, 8]	Ratio hCT/hAmylin funct. [1, 9]	SMILES
0.145 nM	5.4 nM	≧200 μM	≧200 μM	147 μM	59 μM	0.428 nM	50.7 nM	–	–	–	–	CC[C@H](C)[C@H](NC(=O)[C@H](C)NC(=O)CNC(=O)[C@H](Cc1ccccc1)NC(=O)[C@H](CC(N)=O)NC(=O)[C@@H]1CCCN1C(=O)[C@H](CO)NC(=O)[C@H](CO)NC(=O)[C@H](Cc1c[nH]cn1)NC(=O)[C@H](CCCNC(=N)N)NC(=O)[C@H](CC(C)C)NC(=O)[C@H](Cc1ccccc1)NC(=O)[C@H](CC(N)=O)NC(=O)[C@H](C)NC(=O)[C@H](CC(C)C)NC(=O)[C@H](CCCNC(=N)N)NC(=O)[C@H](CCC(N)=O)NC(=O)[C@@H](NC(=O)[C@H](C)NC(=O)[C@@H]1CSSC[C@H](NC(=O)[C@@H](N)CCCCNC(=O)CC[C@H](NC(=O)CCCCCCCCCCCCCCCCCCC(=O)O)C(=O)O)C(=O)N[C@@H](CC(N)=O)C(=O)N[C@@H]([C@@H](C)O)C(=O)N[C@@H](C)C(=O)N[C@@H]([C@@H](C)O)C(=O)N1)[C@@H](C)O)C(=O)N1CCC[C@H]1C(=O)N[C@@H](CO)C(=O)N[C@@H](CO)C(=O)N[C@H](C(=O)N[C@@H](CC(N)=O)C(=O)N[C@H](C(=O)NCC(=O)N[C@@H](Cc1c[nH]cn1)C(=O)N[C@@H](CC(N)=O)C(=O)N[C@H](C(=O)N[C@@H](Cc1ccc(O)cc1)C(N)=O)[C@@H](C)O)C(C)C)[C@@H](C)O [Example 77]
0.356 nM	11.7 nM	≧200 μM	≧200 μM	88 μM	43 μM	0.568 nM	58.9 nM	33.0	33.0	33.0	33.0	CC[C@H](C)[C@H](NC(=O)[C@H](C)NC(=O)CNC(=O)[C@H](Cc1ccccc1)NC(=O)[C@H](CC(N)=O)NC(=O)[C@@H]1CCCN1C(=O)[C@H](CO)NC(=O)[C@H](CO)NC(=O)[C@H](Cc1c[nH]cn1)NC(=O)[C@H](CCCNC(=N)N)NC(=O)[C@H](CC(C)C)NC(=O)[C@H](Cc1ccccc1)NC(=O)[C@H](CC(N)=O)NC(=O)[C@H](C)NC(=O)[C@H](CC(C)C)NC(=O)[C@H](CCCNC(=N)N)NC(=O)[C@H](CCC(N)=O)NC(=O)[C@@H](NC(=O)[C@H](C)NC(=O)[C@@H]1CSSC[C@H](NC(=O)[C@@H](N)CCCCNC(=O)COCCOCCNC(=O)COCCOCCNC(=O)CC[C@H](NC(=O)CCCCCCCCCCCCCCCCCCC(=O)O)C(=O)O)C(=O)N[C@@H](CC(N)=O)C(=O)N[C@@H]([C@@H](C)O)C(=O)N[C@@H](C)C(=O)N[C@@H]([C@@H](C)O)C(=O)N1)[C@@H](C)O)C(=O)N1CCC[C@H]1C(=O)N[C@@H](CO)C(=O)N[C@@H](CO)C(=O)N[C@H](C(=O)N[C@@H](CC(N)=O)C(=O)N[C@H](C(=O)NCC(=O)N[C@@H](Cc1c[nH]cn1)C(=O)N[C@@H](CC(N)=O)C(=O)N[C@H](C(=O)N[C@@H](Cc1ccc(O)cc1)C(N)=O)[C@@H](C)O)C(C)C)[C@@H](C)O [Example 97]
–	–	≧200 μM	≧200 μM	131 μM	52 μM	–	–	–	–	–	–	CC[C@H](C)[C@H](NC(=O)[C@H](C)NC(=O)CNC(=O)[C@H](Cc1ccccc1)NC(=O)[C@H](CC(N)=O)NC(=O)[C@@H]1CCCN1C(=O)[C@H](CO)NC(=O)[C@H](CO)NC(=O)[C@H](Cc1c[nH]cn1)NC(=O)[C@H](CCCNC(=N)N)NC(=O)[C@H](CC(C)C)NC(=O)[C@H](Cc1ccccc1)NC(=O)[C@H](Cc1c[nH]cn1)NC(=O)[C@H](C)NC(=O)[C@H](CC(C)C)NC(=O)[C@H](CCCNC(=N)N)NC(=O)[C@H](CCC(N)=O)NC(=O)[C@@H](NC(=O)[C@H](C)NC(=O)[C@@H]1CSSC[C@H](NC(=O)[C@@H](N)CCCCNC(=O)CC[C@H](NC(=O)CCCCCCCCCCCCCCCCCCC(=O)O)C(=O)O)C(=O)N[C@@H](CC(N)=O)C(=O)N[C@@H]([C@@H](C)O)C(=O)N[C@@H](C)C(=O)N[C@@H]([C@@H](C)O)C(=O)N1)[C@@H](C)O)C(=O)N1CCC[C@H]1C(=O)N[C@@H](CO)C(=O)N[C@@H](CO)C(=O)N[C@H](C(=O)N[C@@H](CC(N)=O)C(=O)N[C@H](C(=O)NCC(=O)N[C@@H](CO)C(=O)N[C@@H](Cc1c[nH]cn1)C(=O)N[C@H](C(=O)N[C@@H](Cc1ccc(O)cc1)C(N)=O)[C@@H](C)O)C(C)C)[C@@H](C)O [Example 66] (H-K([γGlu-C20 diacid])CNTATCATQRLAHFLRHSSPNFGAIPSSTNVGSHTY-NH2; disulfide 2-7; N-terminus assumed)
–	–	174 μM	182 μM	112 μM	32 μM	–	–	26.0	26.0	26.0	26.0	CC[C@H](C)[C@H](NC(=O)[C@H](C)NC(=O)CNC(=O)[C@H](Cc1ccccc1)NC(=O)[C@H](CC(N)=O)NC(=O)[C@@H]1CCCN1C(=O)[C@H](CO)NC(=O)[C@H](CO)NC(=O)[C@H](Cc1c[nH]cn1)NC(=O)[C@H](CCCNC(=N)N)NC(=O)[C@H](CC(C)C)NC(=O)[C@H](Cc1ccccc1)NC(=O)[C@H](CC(N)=O)NC(=O)[C@H](C)NC(=O)[C@H](CC(C)C)NC(=O)[C@H](CCCNC(=N)N)NC(=O)[C@H](CCC(N)=O)NC(=O)[C@@H](NC(=O)[C@H](C)NC(=O)[C@@H]1CSSC[C@H](NC(=O)[C@@H](N)CCCCNC(=O)CC[C@H](NC(=O)CC[C@H](NC(=O)CCCCCCCCCCCCCCCCCCC(=O)O)C(=O)O)C(=O)O)C(=O)N[C@@H](CC(N)=O)C(=O)N[C@@H]([C@@H](C)O)C(=O)N[C@@H](C)C(=O)N[C@@H]([C@@H](C)O)C(=O)N1)[C@@H](C)O)C(=O)N1CCC[C@H]1C(=O)N[C@@H](CO)C(=O)N[C@@H](CO)C(=O)N[C@H](C(=O)N1CCC[C@H]1C(=O)N[C@H](C(=O)NCC(=O)N1CCC[C@H]1C(=O)N[C@@H](CCCNC(=N)N)C(=O)N[C@H](C(=O)N[C@@H](Cc1ccc(O)cc1)C(N)=O)[C@@H](C)O)C(C)C)[C@@H](C)O [Example 119] (H-K([γGlu-γGlu-C20 diacid])CNTATCATQRLANFLRHSSPNFGAIPSSTPVGPRTY-NH2; disulfide 2-7 (inferred); N-terminus and C-terminus assumed)
